Data published in patent US12029748B2, “Synergistic composition for maintenance of healthy balance of microflora” (KIMBERLY-CLARK WORLDWIDE, INC., priority 2017, dated 2024).
Where a SMILES comes first, the peptide text is derived from it.

Experiments:
[1] = system: L. crispatus and E. coli; experiment: Therapeutic Effect Protocol: L. crispatus / E. coli co-culture, ratio after 36 hours; assay type: cell-based, Lactobacillus crispatus; E. coli; conditions: for Therapeutic Efficacy Results (Lactobacillus/E. coli) 0.10%: nitrogen compound 0.10 wt/vol % with 1.0 wt/vol % α methyl-D glucoside (10:1); for Therapeutic Efficacy Results (Lactobacillus/E. coli) 0.10% / Therapeutic Efficacy Results (Lactobacillus/E. coli) 0.50% / Therapeutic Efficacy Results (Lactobacillus/E. coli) 1.00%: 36 hours anaerobic co-culture, 37° C.; for Therapeutic Efficacy Results (Lactobacillus/E. coli) 0.50%: nitrogen compound 0.50 wt/vol % with 1.0 wt/vol % α methyl-D glucoside (2:1); for Therapeutic Efficacy Results (Lactobacillus/E. coli) 1.00%: nitrogen compound 1.00 wt/vol % with 1.0 wt/vol % α methyl-D glucoside (1:1); for Therapeutic effect (ratio of Lactobacillus to E. coli greater than 2) at each concentration tested / Therapeutic effect when ratio α methyl-D glucoside : nitrogen compound is less than 2:1 (1:1) / Therapeutic effect when ratio α methyl-D glucoside : nitrogen compound is at least about 2:1, but not at 1:1 / Therapeutic effect at ratio 2:1 and 10:1, but not at 1:1: with α methyl-D glucoside; for Therapeutic effect (ratio of Lactobacillus to E. coli greater than 2) at each concentration tested: nitrogen compound 1 wt/vol %, 0.5 wt/vol % and 0.1 wt/vol %; for Therapeutic effect when ratio α methyl-D glucoside : nitrogen compound is less than 2:1 (1:1): ratio 1:1; for Therapeutic effect when ratio α methyl-D glucoside : nitrogen compound is at least about 2:1, but not at 1:1: ratio at least about 2:1, not 1:1; for Therapeutic effect at ratio 2:1 and 10:1, but not at 1:1: ratios 2:1 and 10:1, not 1:1
Procedure: As used herein the term “therapeutic effect” refers to the ability of the compositions and formulations of the present invention to stimulate the growth of Lactobacillus relative E. coli measured according to the Therapeutic Effect Protocol described below. Generally, therapeutic effect is expressed as a ratio of Lactobacillus to E. coli and is desirably greater than about 2, more preferably greater than about 20 and more desirably greater than about 100.
The data in Table 1 was tested according to the Therapeutic Effect Protocol as described further herein. The nitrogen compounds were tested for their therapeutic efficacy at three different concentrations when combined with α methyl-D glucoside (1% wt/vol %). The concentrations of the nitrogen containing compounds that were tested were 1% wt/vol %, 0.5% wt/vol %, and 0.1% wt/vol %.
Colonies of L. crispatus and E. coli were prepared as follows. A colony of L. crispatus was transferred to 7 ml de Man, Rogosa & Sharpe (MRS) broth and incubated anaerobically (using BD GasPak EZ anaerobe container system with indicator) at 37° C. without shaking for 18-20 hours. A colony of E. coli was transferred to 5 ml Tryptic Soy Broth (TSB) and incubated aerobically (shaking at 100 rpm) at 37° C. for 18-20 hours.
Colonies were then inoculated as follows. Bacterial cultures were gently vortexed and 1 mL of each culture was transferred to a corresponding 2.0 mL micro-centrifuge tube and then centrifuged for two minutes at 14,500 rpm. The cultural supernatant was removed and the cell pellet was re-suspended in 1 mL of 0.95% (wt/vol %) saline. […] For L. crispatus, the pellet was re-suspended in 1 mL of 0.95% saline to achieve ˜10^7-10^8 cfu/mL. For E. coli, the pellet was re-suspended in 1 mL of 0.95% saline to achieve ˜10^8-10^9 cfu/mL.
Media were prepared as follows.
(§1) All of the ingredients in Table 2 were combined and the pH was adjusted to 6.5. […] To evaluate the effect of various nitrogen containing therapeutic agents on the growth of bacteria, the LAPT-g media, prepared as described above, was supplemented with various nitrogen containing compound therapeutic agents to a final test concentration between 0.1 and 1.0%. As initial screening measures, solubility and initial pH of each composition were checked. If a specific composition was insoluble (as detected by visual indication of precipitates or turbidity), then no further therapeutic efficacy testing was undertaken on that composition. Additionally, if the initial pH of the composition was below 5.5 (“Low”) or was above 6.5 (“High”), then no further therapeutic efficacy testing was undertaken on that composition.
Five milliliters (5 mL) of each medium was transferred to a test tube in duplicates for subsequent inoculation. A master mixture of L. crispatus and E. coli, prepared as described above, was prepared in 1,000:1 ratio. Each (5 ml) test tube was inoculated with the master mixture to give 10^5-10^6 total CFU L. crispatus and 100-1,000 total CFU E. coli per tube.
To establish a negative control, one tube was vortexed and 100 μL was removed to determine the initial cell concentrations by serial dilutions and plating (2 plates per dilution). L. crispatus is selected on MRS agar plates incubated anaerobically at 37° C. for two days. E. coli is selected on TSA plates incubated aerobically at 37° C. for one day. The co-cultures were incubated in an anaerobic container with BD GasPaks at 37° C. for 36 hours.
The effect of the α methyl-D glucoside and the nitrogen containing compound therapeutic agents on the ratio of L. crispatus to E. coli was measured 36 hours after inoculation and a final pH of the test solutions was recorded. The co-culture tube was vortexed and 100 μL was removed to determine the final cell concentrations by serial dilutions and plating (2 plates per dilution). L. crispatus is selected on MRS agar plates incubated anaerobically at 37° C. for two days.

[2] = Initial pH screening of the composition; assay type: physicochemical; conditions: for I pH (initial pH), 0.10%: nitrogen compound 0.10 wt/vol % with 1.0 wt/vol % α methyl-D glucoside in medium; for I pH (initial pH), 0.50%: nitrogen compound 0.50 wt/vol % with 1.0 wt/vol % α methyl-D glucoside in medium; for I pH (initial pH), 1.00%: nitrogen compound 1.00 wt/vol % with 1.0 wt/vol % α methyl-D glucoside in medium
From the text: Each composition in Table 1 went through initial screening measures of solubility and initial pH (“I pH”). […] When a specific concentration of a nitrogen containing compound was insoluble, the initial and final pH (“F pH”) of the combined composition was not measured and accordingly are each marked as “NM.” Additionally, initial pH of the composition was checked as a screening measure. The initial pH was marked as either Low (“L”), High (“H”), or Pass (“P”). A Low initial pH corresponds to an initial pH being less than 5.5, a High initial pH corresponds to an initial pH being greater than 6.5, and a Pass initial pH corresponds to the pH being at or between 5.5-6.5. […] As part of the Therapeutic Effect Protocol, a final pH was also measured after the compositions that were tested against the Lactobacillus and E. coli.
as §1

| Structure (SMILES) | Therapeutic Efficacy Results (Lactobacillus/E. coli) 0.10% [1] | Therapeutic Efficacy Results (Lactobacillus/E. coli) 0.50% [1] | Therapeutic Efficacy Results (Lactobacillus/E. coli) 1.00% [1] | Therapeutic effect (ratio of Lactobacillus to E. coli greater than 2) at each concentration tested [1] | Therapeutic effect when ratio α methyl-D glucoside : nitrogen compound is less than 2:1 (1:1) [1] | I pH (initial pH), 0.10% [2] | I pH (initial pH), 0.50% [2] | I pH (initial pH), 1.00% [2] | Therapeutic effect when ratio α methyl-D glucoside : nitrogen compound is at least about 2:1, but not at 1:1 [1] | Therapeutic effect at ratio 2:1 and 10:1, but not at 1:1 [1] |
| --- | --- | --- | --- | --- | --- | --- | --- | --- | --- | --- |
| C[C@@H](N)C(=O)O [D-Alanine] | 1.10E+06 | >1.30E+04 | 60 | provided a therapeutic effect | provided a therapeutic effect | P (a Pass initial pH corresponds to the pH being at or between 5.5-6.5) | P (a Pass initial pH corresponds to the pH being at or between 5.5-6.5) | P (a Pass initial pH corresponds to the pH being at or between 5.5-6.5) |  |  |
| NC(=O)C[C@@H](N)C(=O)O [D-Asparagine] | >3410 | 6.00E+06 | 72 | provided a therapeutic effect | provided a therapeutic effect | P (a Pass initial pH corresponds to the pH being at or between 5.5-6.5) | P (a Pass initial pH corresponds to the pH being at or between 5.5-6.5) | P (a Pass initial pH corresponds to the pH being at or between 5.5-6.5) |  |  |
| Cl.N[C@H]1C(O)O[C@H](CO)[C@H](O)[C@@H]1O (stereo partly drawn) [D-Galactosamine HCL] | 6.72 | >1220 | 1.29 |  |  | P (a Pass initial pH corresponds to the pH being at or between 5.5-6.5) | P (a Pass initial pH corresponds to the pH being at or between 5.5-6.5) | P (a Pass initial pH corresponds to the pH being at or between 5.5-6.5) | provided a therapeutic effect | provided a therapeutic effect |
| Cl.N[C@H]1C(O)O[C@H](CO)[C@@H](O)[C@@H]1O (stereo partly drawn) [D-Glucosamine HCL] | 77.8 | 6.00E+06 | 454 | provided a therapeutic effect | provided a therapeutic effect | P (a Pass initial pH corresponds to the pH being at or between 5.5-6.5) | P (a Pass initial pH corresponds to the pH being at or between 5.5-6.5) | P (a Pass initial pH corresponds to the pH being at or between 5.5-6.5) |  |  |
| NC(=O)[C@H]1O[C@@H](O)[C@H](O)[C@@H](O)[C@@H]1O [D-glucoronamide] | >122 | 6.84E+03 | 1.6 |  |  | P (a Pass initial pH corresponds to the pH being at or between 5.5-6.5) | P (a Pass initial pH corresponds to the pH being at or between 5.5-6.5) | P (a Pass initial pH corresponds to the pH being at or between 5.5-6.5) | provided a therapeutic effect | provided a therapeutic effect |
| Cl.N[C@@H]1C(O)O[C@H](CO)[C@@H](O)[C@@H]1O (stereo partly drawn) [D-mannosamine HCl] | 0.202 | 84 | 0.96 |  |  | P (a Pass initial pH corresponds to the pH being at or between 5.5-6.5) | P (a Pass initial pH corresponds to the pH being at or between 5.5-6.5) | P (a Pass initial pH corresponds to the pH being at or between 5.5-6.5) | provided a therapeutic effect |  |
| CC(O)C(N)=O (stereo not drawn) [DL Lactamide] | 7.52 | >1330 | 0.8 |  |  | P (a Pass initial pH corresponds to the pH being at or between 5.5-6.5) | P (a Pass initial pH corresponds to the pH being at or between 5.5-6.5) | P (a Pass initial pH corresponds to the pH being at or between 5.5-6.5) | provided a therapeutic effect | provided a therapeutic effect |
| NCC(=O)N[C@@H](CC(N)=O)C(=O)O [Gly-Asn] (H-Gly-Asn-OH) | 108 | >1.58E+04 | 1.3 |  |  | P (a Pass initial pH corresponds to the pH being at or between 5.5-6.5) | P (a Pass initial pH corresponds to the pH being at or between 5.5-6.5) | P (a Pass initial pH corresponds to the pH being at or between 5.5-6.5) | provided a therapeutic effect | provided a therapeutic effect |
| NCC(=O)N[C@@H](CCC(N)=O)C(=O)O.O [Gly-Gln] (H-Gly-Gln-OH) | 8.57 | >189 | 0.38 |  |  | P (a Pass initial pH corresponds to the pH being at or between 5.5-6.5) | P (a Pass initial pH corresponds to the pH being at or between 5.5-6.5) | P (a Pass initial pH corresponds to the pH being at or between 5.5-6.5) | provided a therapeutic effect | provided a therapeutic effect |
| NCC(=O)N[C@@H](CCC(=O)O)C(=O)O [Gly-Glu] (H-Gly-Glu-OH) | 6.83 |  |  |  |  | P (a Pass initial pH corresponds to the pH being at or between 5.5-6.5) | L (A Low initial pH corresponds to an initial pH being less than 5.5) | L (A Low initial pH corresponds to an initial pH being less than 5.5) | provided a therapeutic effect |  |
